The results in this text go back to US20260022118A1, “HETEROCYCLIC COMPOUNDS AS NRAS INHIBITORS” (Board of Regents, The University of Texas System, priority 2023, published 2026).

The test system of assay [1] is THP-1 cells expressing G12D (NRAS G12D). Nature of the assay: Inhibition of NRAS G12D-mediated phosphorylation of ERK (AlphaLISA p-ERK1/2) in THP-1 cells. Type of assay: cell-based. The following applies: Homo sapiens, THP-1, 2 h, 2 hours incubation, HBSS with 0% or 10% FBS, p-ERK1/2 (Thr202/Tyr204) AlphaLISA, read-out: pERK THP-1 IC50. How it is done: Inhibition of NRAS G12D-Mediated Phosphorylation of ERK by Exemplary Compounds of Formulas I, II, and III.
This Example illustrates that exemplary compounds and salts thereof described herein inhibit the phosphorylation of ERK downstream of NRAS G12D.
THP-1 cells (ATCC TIB-202) expressing G12D were maintained in RPMI-1640 medium supplemented with 10% fetal bovine serum (FBS), 0.05 mM 2-mercaptoethanol, and penicillin/streptomycin. Cells (20,000/well) were seeded onto a 384 well plate in 20 μL of HBSS supplemented with 0% or 10% FBS. Cells were incubated in the absence or presence of various concentrations of test compound (final 1% DMSO) for 2 hours. p-ERK expression was assessed using the AlphaLISA SureFire Ultra p-ERK1/2 (Thr202/Tyr204) (PerkinElmer®, ALSU-PERK-A10K) following manufacturer recommendation. Plates were read on a PerkinElmer® Envision Multimode plate reader. Dose-response curves were analyzed using IC50 regression curve fitting (GeneData Screener). Curves were plotted as a percent control and normalized by high controls without inhibitor (100%), and low controls (0%) containing 1 μM of trametinib, a potent MEK inhibitor.
In general terms: Alpha assays give light when donor and acceptor beads are brought close together.

The target in a further assay is NRAS G12D C118S (Homo sapiens (Human), UniProt P01111, C118S/G12D). Description: NRas G12D Surface Plasmon Resonance (SPR) binding assay. Particulars: Avi-tagged biotinylated NRAS G12D C118S on streptavidin chip, 25° C., 1:1 kinetic or steady-state fit. How it is done:
NRas G12D Surface Plasmon Resonance (SPR) Binding Assay
This Example illustrates that exemplary compounds and salts thereof described herein bind to NRAS G12D as measured by surface plasmon resonance (SPR).
Two liters of 1.03× running buffer (1.03×HBS-P+pH 7.4, containing 0.0103 M HEPES, 0.1545 M NaCl, 0.0515% v/v Surfactant P20 (Cytiva®, BR100671); 5.15 mM MgCl2 (Invitrogen, AM9530G); 0.515 mM TCEP, pH 8.0 (GoldBio®, TCEP25)) was prepared and filter sterilized using a 0.22 μm filter. A 1-L volumetric flask was filled partway with this buffer. A 30-mL volumetric flask was used to measure 30 mL of 100% DMSO (Sigma Aldrich®, 41639-100ML) which was added to the 1-L flask. The solution in the 1-L flask was brought up to 1 L with 1.03× buffer, resulting in a 1.0× assay running buffer containing 1.0×HBS-P+, 5 mM MgCl2, […], and 3% DMSO. Remaining 1.03× buffer was used for preparation of samples and immobilization running buffer.
Samples were prepared in a standard conical-bottomed 384-well microplate by adding 2 μL 10 mM DMSO cpd stock to each well, followed by 8 μL DMSO. A control compound was selected based off of its relatively “fast” kinetics that could be fitted by 1:1 kinetic fitting, as well as by steady-state fitting. Control wells for periodic injection to assess protein activity throughout the assay were also assembled, by diluting 10 mM compound 1:30 in DMSO, then adding 20 μL to the appropriate wells, such that the final concentration of compound would be 10 μM, and the final concentration of DMSO would be 3%. A Biomek™ FXP Laboratory Automation Workstation was used to stamp 20 μL DMSO into all sample wells—minus the control wells—according to the plate map, and then serially dilute 1:3 by mixing and aspirating 10 μL, delivering into the 20 μL of DMSO in the next well, resulting in 10-point serial dilution curves. A Biotek™ Multiflo EL406 Washer Dispenser was used to deliver 80 μL of 1.03× buffer to the compound plate. The plate was mixed 10× by FX, then a final dilution was performed by stamping 18 μL from the compound plate into a 384-well deep-well plate that had also been previously filled with 102 μL 1.03× buffer via the Multiflo. The solution in the deep-well plate was mixed 10× by FX, then sealed with a 384-well microplate foil from Cytiva® (Cytiva® BR100577) and placed on an orbital shaker for 30 minutes at 1000 RPM to ensure complete mixing of the DMSO solution in the buffer. A solvent correction curve was also prepared by making a 4% DMSO solution in 1.03× buffer and diluting in 1.03× buffer such that there were eight solutions of decreasing DMSO concentrations resulting in a high DMSO concentration of 4% and a low concentration of 2% DMSO.
Immobilization running buffer was prepared in a 200-mL volume by diluting 1.03× running buffer prepared above to 1.0×. A Cytiva® Streptavidin chip (Cytiva®, 29104992) was docked into a Biacore™ S200 instrument, and the instrument was then primed three times into the immobilization running buffer. A protein stock of Avi-tagged NRAS G12D C118S was prepared in-house and biotinylated using the Bulk BirA: BirA biotin-protein ligase bulk reaction kit from Avidity (Avidity®, Bulk BirA). Upon completion of the biotinylation reaction, Amicon® ultra 0.5-mL Centrifugal Filters with a MWCO of 3 k Da (Millipore® UFC500396) were used to reduce the free biotin concentration below 0.1 μM in the protein sample over the course of eight desalting cycles, according to the manufacturer's protocol. Resulting protein concentration was not measured directly as an accurate protein concentration is not required for immobilizing protein on the chip surface; however, a theoretical yield of ≤1.5 mg/mL was estimated based off of retained volumes during the desalting process. Reagents for immobilization were prepared as instructed in the Biacore™ 5200 Control Software Immobilization Wizard, including solutions of 1 M NaCl in 50 mM NaOH, and 1 M NaCl in 50 mM NaOH and 50% isopropyl alcohol. […]

Sequence of NRAS G12D C118S (P01111 whole entry G12D/C118S): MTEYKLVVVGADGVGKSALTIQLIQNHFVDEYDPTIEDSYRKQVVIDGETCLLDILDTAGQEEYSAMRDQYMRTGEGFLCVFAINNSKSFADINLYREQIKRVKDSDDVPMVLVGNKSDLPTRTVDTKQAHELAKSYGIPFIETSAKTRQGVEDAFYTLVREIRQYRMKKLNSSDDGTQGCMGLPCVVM

One may read the IC50 as the concentration at which inhibition is half-maximal. As a reminder, the Kd is a measure of binding affinity in units of concentration. As for `C#Cc1c(F)ccc2cc(O)cc(-c3ncc4c(N5CC6CCC(C5)N6)nn(CC)c4c3F)c12` [Example 8, 4-(3-(3,8-diazabicyclo[3.2.1]octan-3-yl)-1-ethyl-7-fluoro-1H-pyrazolo[4,3-c]pyridin-6-yl)-5-ethynyl-6-fluoronaphthalen-2-ol], in assay [1], the half-inhibitory concentration (IC50) was 11.1 µM. Besides, the Kd on NRAS G12D C118S turned out to be 1.92 µM.

For `C#Cc1c(F)ccc2cc(O)cc(-c3ncc4c(N5CC(N(C)C)C5)nn(C)c4c3F)c12` [Example 33, 4-[3-[3-(dimethylamino)azetidin-1-yl]-7-fluoro-1-methyl-pyrazolo[4,3-c]pyridin-6-yl]-5-ethynyl-6-fluoro-naphthalen-2-ol], in assay [1], the half-maximal inhibitory concentration (IC50) is above 50 µM. Further, the affinity on NRAS G12D C118S, expressed as Kd, was 8.75 µM.

For `C#Cc1c(F)ccc2cc(O)cc(-c3nc(OCC(C)C)c4c([C@H]5[C@@H]6CNC[C@@H]65)nn(C5CC5)c4c3F)c12` [Example 100, 4-(3-((1R,5S,6r)-3-azabicyclo[3.1.0]hexan-6-yl)-1-cyclopropyl-7-fluoro-4-isobutoxy-1H-pyrazolo[4,3-c]pyridin-6-yl)-5-ethynyl-6-fluoronaphthalen-2-ol], in assay [1], the IC50 was found to be 1.76 µM. Further, the dissociation constant (Kd) at NRAS G12D C118S was 0.704 µM.

With `C#Cc1c(F)ccc2cc(O)cc(-c3ncc4c([C@H]5[C@@H]6CNC[C@@H]65)cn(C5CC5)c4c3F)c12` [Example 5, 4-(3-((1R,5S,6s)-3-azabicyclo[3.1.0]hexan-6-yl)-1-cyclopropyl-7-fluoro-1H-pyrrolo[3,2-c]pyridin-6-yl)-5-ethynyl-6-fluoronaphthalen-2-ol], the IC50 in assay [1] is 0.269 µM. On NRAS G12D C118S, this compound returned a Kd of 0.0101 µM.

For the compound `C#Cc1c(F)ccc2cc(O)cc(-c3nc(OC)c4c(N5C[C@@H]6CC[C@H]5CN6)nn(C5CC5)c4c3F)c12` [Example 91, 4-(3-((1S,4S)-2,5-diazabicyclo[2.2.2]octan-2-yl)-1-cyclopropyl-7-fluoro-4-methoxy-1H-pyrazolo[4,3-c]pyridin-6-yl)-5-ethynyl-6-fluoronaphthalen-2-ol], in assay [1], the 50% inhibitory concentration (IC50) was found to be 1.65 µM. For the same compound, binding at NRAS G12D C118S was put at a Kd of 0.146 µM.

`C#Cc1c(F)ccc2cc(O)cc(-c3ncc4c(N5CC6CCC(C5)N6)nn(C5CCC5)c4c3F)c12` [Example 16, 4-(3-(3,8-diazabicyclo[3.2.1]octan-3-yl)-1-cyclobutyl-7-fluoro-1H-pyrazolo[4,3-c]pyridin-6-yl)-5-ethynyl-6-fluoronaphthalen-2-ol]: the affinity on NRAS G12D C118S, expressed as Kd, was 5.65 µM.

`C#Cc1c(F)ccc2cc(O)cc(-c3ncc4c(N5CC6CCC(C5)N6)n[nH]c4c3F)c12` [Example 17, 4-(3-(3,8-diazabicyclo[3.2.1]octan-3-yl)-7-fluoro-1H-pyrazolo[4,3-c]pyridin-6-yl)-5-ethynyl-6-fluoronaphthalen-2-ol] showed a dissociation constant (Kd) on NRAS G12D C118S of 30.8 µM.

`C#Cc1c(F)ccc2cc(O)cc(-c3cc4c(cn3)c([C@H]3[C@@H]5CNC[C@@H]53)cn4C)c12` [Example 22, 4-(3-((1R,5S,6s)-3-azabicyclo[3.1.0]hexan-6-yl)-1-methyl-1H-pyrrolo[3,2-c]pyridin-6-yl)-5-ethynyl-6-fluoronaphthalen-2-ol] returned a dissociation constant (Kd) at NRAS G12D C118S of 1.64 µM.

As for `C#Cc1c(F)ccc2cc(O)cc(-c3ncc4c(N5CCNCC5)nn(CC)c4c3F)c12` [Example 10, 4-(1-ethyl-7-fluoro-3-(piperazin-1-yl)-1H-pyrazolo[4,3-c]pyridin-6-yl)-5-ethynyl-6-fluoronaphthalen-2-ol], the equilibrium dissociation constant (Kd) on NRAS G12D C118S was 38.7 µM.

Take `C#Cc1c(F)ccc2cc(O)cc(-c3ncc4c(C5=CC6CCC(C5)N6)nn(CC)c4c3F)c12` (stereo not shown) [Example 9, 4-(3-(8-azabicyclo[3.2.1]oct-2-en-3-yl)-1-ethyl-7-fluoro-1H-pyrazolo[4,3-c]pyridin-6-yl)-5-ethynyl-6-fluoronaphthalen-2-ol]: binding on NRAS G12D C118S was put at a Kd of 16.2 µM.

On NRAS G12D C118S, `C#Cc1c(F)ccc2cc(O)cc(-c3ncc4c([C@H]5[C@@H]6CNC[C@@H]65)nn(CC)c4c3F)c12` [Example 20, 4-(3-((1R,5S,6r)-3-azabicyclo[3.1.0]hexan-6-yl)-1-ethyl-7-fluoro-1H-pyrazolo[4,3-c]pyridin-6-yl)-5-ethynyl-6-fluoronaphthalen-2-ol] returned a Kd of 0.159 µM.

The compound `C#Cc1c(F)ccc2cc(O)cc(-c3cc4c(cn3)c(N3CC5CCC(C3)N5)nn4CC)c12` [Example 6, 4-(3-(3,8-diazabicyclo[3.2.1]octan-3-yl)-1-ethyl-1H-pyrazolo[4,3-c]pyridin-6-yl)-5-ethynyl-6-fluoronaphthalen-2-ol] yielded a Kd on NRAS G12D C118S of 8.2 µM.

`C#Cc1c(F)ccc2cc(O)cc(-c3cc4c(cn3)c(N3C5CCC3CNC5)nn4C)c12` [Example 19, 4-(3-(3,8-diazabicyclo[3.2.1]octan-8-yl)-1-methyl-1H-pyrazolo[4,3-c]pyridin-6-yl)-5-ethynyl-6-fluoronaphthalen-2-ol] registered a Kd on NRAS G12D C118S of 6.1 µM.

On to `C#Cc1c(F)ccc2cc(O)cc(-c3ncc4c(NCC5(N(C)C)CCC5)nn(CC)c4c3F)c12` [Example 12, 4-(3-(((1-(dimethylamino)cyclobutyl)methyl)amino)-1-ethyl-7-fluoro-1H-pyrazolo[4,3-c]pyridin-6-yl)-5-ethynyl-6-fluoronaphthalen-2-ol], for which the Kd at NRAS G12D C118S was found to be 8.35 µM.

For `C#Cc1c(F)ccc2cc(O)cc(-c3ncc4c(N5CC6CCC(C5)N6)nn(CCC)c4c3F)c12` [Example 14, 4-(3-(3,8-diazabicyclo[3.2.1]octan-3-yl)-7-fluoro-1-propyl-1H-pyrazolo[4,3-c]pyridin-6-yl)-5-ethynyl-6-fluoronaphthalen-2-ol], the Kd on NRAS G12D C118S came out at 4.41 µM.

In turn, `C#Cc1c(F)ccc2cc(O)cc(-c3ncc4c([C@H]5[C@@H]6CNC[C@@H]65)cn(C)c4c3F)c12` [Example 2, 4-(3-((1R,5S,6S)-3-azabicyclo[3.1.0]hexan-6-yl)-7-fluoro-1-methyl-1H-pyrrolo[3,2-c]pyridin-6-yl)-5-ethynyl-6-fluoronaphthalen-2-ol 2,2,2-trifluoroacetate] returned a Kd on NRAS G12D C118S of 0.0526 µM.

Turning to `C#Cc1c(F)ccc2cc(O)cc(-c3cc4[nH]nc(N5CC6CCC(C5)N6)c4cn3)c12` [Example 18, 4-(3-(3,8-diazabicyclo[3.2.1]octan-3-yl)-1H-pyrazolo[4,3-c]pyridin-6-yl)-5-ethynyl-6-fluoronaphthalen-2-ol], at NRAS G12D C118S, the dissociation constant (Kd) stood at 40.5 µM.
